# Reference: patent US20070099970A1, “Immunomodulatory compounds that target and inhibit the pY'binding site of tyrosene kinase p56 LCK SH2 domain” (priority 2005, published 2007)
# Target: T1, recombinant GST Lck SH2 domain fusion protein (Homo sapiens, UniProt P06239)
# T1 construct: recombinant GST Lck SH2 domain fusion protein; made in house
# Assay: solid phase EIA inhibition assay: binding of GST Lck SH2 domain to CD3 ζ chain ITAM 2 phosphopeptide
# Settings: assay example 1, stronger inhibitors >60% inhibition, weaker inhibitors <60% inhibition
# Experimental: Compounds of the invention were obtained from commercial sources and were tested using a high-throughput Enzyme Immunoassay (EIA) developed to rapidly quantify inhibition.
# Biological activities were measured using said EIA assay using 96 well medium binding EIA plates (Costar). Wells were coated with 100 μl of human CD3 ζ chain ITAM 2 phosphopeptide conjugated to BSA (˜10 pmole peptide equivalent) in PBS overnight at 4° C. and blocked with 300 μl of PBS containing 5% (wt/vol) powdered skim milk for 1 h at 37° C. After washing with PBS containing 1% Tween 20 (PBST), 3 times, 100 μl of precalibrated bacterial lysate containing recombinant GST Lck SH2 domain fusion protein was added in the presence or absence of test compounds and incubated for 1 h at room temperature. After 3 extensive washings with PBST, 100 μl of PBS containing HRP-conjugated rabbit anti-GST antibody was added and incubated for 1 h. After extensive washing with PBST, 100 μl of TMB substrate was added and absorbance at 620 nm was measured using a multiwell EIA plate reader (Anthos HTIII). The percent inhibition (% inhibition) was calculated based on the optical density (OD) using the formula: % inhibition=100−(ΔOD of test well/ΔOD of positive wells)×100, where ΔOD was calculated by subtracting background OD (average OD of negative wells) from the test as well as positive control wells. Error analysis was performed on two or more measurements.
# T1 sequence (P06239 127-224 limits assumed): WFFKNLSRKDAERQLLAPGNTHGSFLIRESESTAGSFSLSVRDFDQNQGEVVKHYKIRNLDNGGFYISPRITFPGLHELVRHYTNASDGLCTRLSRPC
row,"inhibitory activity, in words",Structure (SMILES)
1,stronger inhibitors,Cc1ccc(NC(=O)CN2C(=O)S/C(=C/c3ccc(-c4ccc(Cl)c(C(=O)O)c4)o3)C2=O)cc1 [276-13]
2,lower activity,Cc1ccc(NC(=O)CN2C(=O)S/C(=C\c3cccc(O)c3)C2=O)cc1 [276-14]
3,lower activity,Cc1ccc(NC(=O)CN2C(=O)S/C(=C\c3ccc(O)cc3)C2=O)cc1 [276-15]

# Second part, the compound before the results:
row,Structure (SMILES),"inhibitory activity, in words"
1,Cc1cccc(NC(=O)CN2C(=O)S/C(=C\c3ccc(O)cc3)C2=O)c1 [276-6],lower activity
2,Cc1ccc(NC(=O)CN2C(=O)S/C(=C\c3ccccc3O)C2=O)cc1 [276-11],lowest activity among the highly active compounds
3,COC(=O)c1ccc(-c2ccc(/C=C3\SC(=O)N(CC(=O)Nc4ccc(C)cc4)C3=O)o2)c(C)c1 [276-8],weak inhibitors
